These results are taken from PubChem BioAssay (NCI).

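Cultured in 96-well plates, cells were exposed to test compound for 48 hours across five concentrations. At the GI50, growth is halved. At the TGI there is no net growth.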

Some test systems named below: CAKI-1 renal; CCRF-CEM leukemia; HCC-2998 colon; HCT-15 colon; K-562 leukemia; M14 melanoma; NCI/ADR-RES ovarian; OVCAR-4 ovarian; OVCAR-5 ovarian; SNB-19 CNS.
Holding throughout (assay): growth of human tumour cells (NCI), 48 h

Consider `N#CC(C#N)=C1CCCOc2c1ccc1ccccc21`, for which the GI50 is above 100 µM in the assay with CAKI-1 renal; 23 µM in the assay with CCRF-CEM leukemia; above 100 µM with HCC-2998 colon; above 100 µM in the assay on HCT-15 colon; 20.4 µM in the assay with K-562 leukemia; above 100 µM in the assay with M14 melanoma. Besides, the GI50 in the assay with NCI/ADR-RES ovarian is above 100 µM; in the assay on OVCAR-4 ovarian it was above 100 µM; with OVCAR-5 ovarian it was above 100 µM; with SNB-19 CNS, 94.3 µM. The TGI in the assay on CAKI-1 renal was above 100 µM; with CCRF-CEM leukemia, 63.7 µM; in the assay with HCC-2998 colon it was above 100 µM; in the assay with HCT-15 colon, above 100 µM; in the assay with K-562 leukemia, 43.5 µM; in the assay on M14 melanoma it was above 100 µM. Moreover, the TGI in the assay with NCI/ADR-RES ovarian, with OVCAR-4 ovarian, with OVCAR-5 ovarian and with SNB-19 CNS was above 100 µM throughout.

As to `COc1ccc(-c2nn(-c3cccc(Cl)c3)cc2-c2nc(N)[nH]c(=O)c2C#N)cc1`, the GI50 was 2.52 µM in the assay with CAKI-1 renal; 3.65 µM in the assay on CCRF-CEM leukemia; 5.87 µM with HCC-2998 colon; 5.07 µM in the assay with HCT-15 colon; 3.45 µM in the assay on K-562 leukemia; 3.25 µM in the assay on M14 melanoma. Besides, the GI50 in the assay with NCI/ADR-RES ovarian is 3.33 µM; in the assay on OVCAR-4 ovarian it was 7.71 µM; in the assay with OVCAR-5 ovarian it was 14.6 µM; in the assay on SNB-19 CNS, 4.58 µM. Besides, the TGI with CAKI-1 renal was 15.3 µM; in the assay on CCRF-CEM leukemia, 33.8 µM; with HCC-2998 colon it was 24.9 µM; in the assay on HCT-15 colon, above 100 µM; with K-562 leukemia, above 100 µM; in the assay on M14 melanoma, 34 µM. Also, the TGI was 15.9 µM in the assay on NCI/ADR-RES ovarian, 61.9 µM in the assay on OVCAR-4 ovarian, 51.4 µM in the assay on OVCAR-5 ovarian and above 100 µM in the assay with SNB-19 CNS.

With `COC(=O)[C@]12CC[C@@H](C)[C@H](C)[C@@H]1C1=CC[C@@H]3[C@@]4(C)C(C=O)=C[C@@](C)(COC(=O)c5ccco5)[C@@H]4[C@H](O)C[C@@]3(C)[C@]1(C)CC2`, the GI50 was 2.86 µM in the assay with CAKI-1 renal; 2.54 µM in the assay on CCRF-CEM leukemia; 1.92 µM in the assay with HCC-2998 colon; 1.51 µM with HCT-15 colon; 2.96 µM in the assay on K-562 leukemia; 0.305 µM in the assay with M14 melanoma. Besides, the GI50 in the assay on NCI/ADR-RES ovarian is 2.76 µM; in the assay with OVCAR-4 ovarian it was 2.38 µM; in the assay with OVCAR-5 ovarian, 3 µM; in the assay with SNB-19 CNS, 4.32 µM. Moreover, the TGI with CAKI-1 renal is above 100 µM; in the assay with CCRF-CEM leukemia, 7.58 µM; in the assay with HCC-2998 colon it was 3.71 µM; with HCT-15 colon it was 3.09 µM; with K-562 leukemia, 9.96 µM; with M14 melanoma, 2.6 µM. The TGI worked out at 12 µM in the assay on NCI/ADR-RES ovarian, 28.2 µM in the assay with OVCAR-4 ovarian, 9.72 µM in the assay on OVCAR-5 ovarian and 30.8 µM with SNB-19 CNS.

For the compound `COc1ccc(-c2cc(Nc3ccnc(N4CCOCC4)n3)on2)cc1`, the GI50 with CAKI-1 renal was 0.089 µM; in the assay on CCRF-CEM leukemia, 0.267 µM; with HCC-2998 colon, 0.461 µM; in the assay with HCT-15 colon it was 0.0645 µM; in the assay on K-562 leukemia, 0.047 µM; in the assay on M14 melanoma, 0.0957 µM. The GI50 is 0.143 µM in the assay on NCI/ADR-RES ovarian, 1.72 µM with OVCAR-4 ovarian, 0.684 µM in the assay with OVCAR-5 ovarian and 0.428 µM in the assay on SNB-19 CNS. Besides, the TGI in the assay on CAKI-1 renal was 18.7 µM; in the assay with CCRF-CEM leukemia, above 34.5 µM; with HCC-2998 colon, 10.6 µM; with HCT-15 colon it was 13 µM; in the assay on K-562 leukemia, 20.9 µM; in the assay on M14 melanoma, 14.8 µM. Further, the TGI amounted to 5.76 µM with NCI/ADR-RES ovarian, 18.5 µM in the assay with OVCAR-4 ovarian, 20.8 µM in the assay on OVCAR-5 ovarian and 17.6 µM with SNB-19 CNS.

As to `Cc1ccc2occ/c(=N\Nc3ccccc3)c2c1`, the TGI in the assay on CAKI-1 renal, in the assay on CCRF-CEM leukemia, in the assay on HCC-2998 colon, in the assay with HCT-15 colon, in the assay with K-562 leukemia and in the assay with M14 melanoma was above 100 µM each time. For the same compound, the TGI in the assay on NCI/ADR-RES ovarian, with OVCAR-4 ovarian, in the assay with OVCAR-5 ovarian and in the assay on SNB-19 CNS was above 100 µM throughout.

Take `Cn1cc(S(=O)(=O)N2CCC3=Cc4c(cnn4-c4ccc(F)cc4)C[C@]3(C(=O)c3cc(C(F)(F)F)ccn3)C2)cn1`: the GI50 in the assay on CAKI-1 renal was 60.1 µM; in the assay on CCRF-CEM leukemia it was above 100 µM; in the assay with HCC-2998 colon, above 100 µM; in the assay with HCT-15 colon, above 100 µM; in the assay on K-562 leukemia it was above 100 µM; in the assay on M14 melanoma, above 100 µM. Besides, the GI50 with NCI/ADR-RES ovarian, in the assay with OVCAR-4 ovarian, in the assay on OVCAR-5 ovarian and in the assay on SNB-19 CNS was above 100 µM throughout. For the same compound, the TGI with CAKI-1 renal, with CCRF-CEM leukemia, with HCC-2998 colon, with HCT-15 colon, with K-562 leukemia and in the assay with M14 melanoma was above 100 µM in each case. Besides, the TGI in the assay on NCI/ADR-RES ovarian, with OVCAR-4 ovarian, with OVCAR-5 ovarian and with SNB-19 CNS was above 100 µM in each case.

Consider `CCOC(=O)C1=C(N)Oc2c(sc3c(C)cccc23)C1c1ccc(F)cc1` (stereo not given), for which the GI50 with CAKI-1 renal was 0.413 µM; in the assay with CCRF-CEM leukemia it was 0.559 µM; with HCC-2998 colon, 1.72 µM; with HCT-15 colon, 0.415 µM; in the assay with K-562 leukemia it was 0.375 µM; with M14 melanoma it was 0.486 µM. Further, the GI50 was 0.384 µM in the assay on NCI/ADR-RES ovarian, 3.33 µM in the assay on OVCAR-4 ovarian, 1.67 µM in the assay on OVCAR-5 ovarian and 0.621 µM with SNB-19 CNS. For the same compound, the TGI in the assay on CAKI-1 renal is 14.9 µM; in the assay on CCRF-CEM leukemia it was 21.6 µM; in the assay on HCC-2998 colon, 8.78 µM; in the assay with HCT-15 colon, 10.9 µM; in the assay on K-562 leukemia, above 42.7 µM; in the assay with M14 melanoma it was 14.5 µM. For the same compound, the TGI was determined as 14.5 µM in the assay with NCI/ADR-RES ovarian, 18.3 µM in the assay on OVCAR-4 ovarian, 17.6 µM in the assay with OVCAR-5 ovarian and 16.3 µM in the assay with SNB-19 CNS.
